Experimental data from the kinase profiling compilation of Christmann-Franck et al. (2016).

How the values were obtained:
Assay in all cases: radiometric filter-binding kinase assay
MAPK15 (human) = MAPK15 (human) (UniProt Q8TD08)
MAPK9 (human) = MAPK9 (human) (UniProt P45984)
CaMK1 (human) = CaMK1 (human) (UniProt Q14012)
DYRK1A (human) = DYRK1A (human) (UniProt Q13627)
IKBKE (human) = IKBKE (human) (UniProt Q14164)
IKBKB (human) = IKBKB (human) (UniProt O14920)
PIM1 (human) = PIM1 (human) (UniProt P11309)
HIPK2 (human) = HIPK2 (human) (UniProt Q9H2X6)
BTK (human) = BTK (human) (UniProt Q06187)
DYRK2 (human) = DYRK2 (human) (UniProt Q92630)
PRKACA (human) = PRKACA (human) (UniProt P17612)
CSNK1D (human) = CSNK1D (human) (UniProt P48730)
YES1 (human) = YES1 (human) (UniProt P07947)
MKNK2 (human) = MKNK2 (human) (UniProt Q9HBH9)
MAPK12 (human) = MAPK12 (human) (UniProt P53778)
PAK7 (human) = PAK7 (human) (UniProt Q9P286)
MAPK14 (human) = MAPK14 (human) (UniProt Q16539)
MAPKAPK2 (human) = MAPKAPK2 (human) (UniProt P49137)
MAPK8 (human) = MAPK8 (human) (UniProt P45983)
MAPKAPK5 (human) = MAPKAPK5 (human) (UniProt Q8IW41)
MELK (human) = MELK (human) (UniProt Q14680)
EPHB3 (human) = EPHB3 (human) (UniProt P54753)
CSK (human) = CSK (human) (UniProt P41240)
CAMKK2 (human) = CAMKK2 (human) (UniProt Q96RR4)
IGF1R (human) = IGF1R (human) (UniProt P08069)
AURKB (human) = AURKB (human) (UniProt Q96GD4)
PAK4 (human) = PAK4 (human) (UniProt O96013)

Sequence of AURKB (human) (Q96GD4 whole entry, looked up): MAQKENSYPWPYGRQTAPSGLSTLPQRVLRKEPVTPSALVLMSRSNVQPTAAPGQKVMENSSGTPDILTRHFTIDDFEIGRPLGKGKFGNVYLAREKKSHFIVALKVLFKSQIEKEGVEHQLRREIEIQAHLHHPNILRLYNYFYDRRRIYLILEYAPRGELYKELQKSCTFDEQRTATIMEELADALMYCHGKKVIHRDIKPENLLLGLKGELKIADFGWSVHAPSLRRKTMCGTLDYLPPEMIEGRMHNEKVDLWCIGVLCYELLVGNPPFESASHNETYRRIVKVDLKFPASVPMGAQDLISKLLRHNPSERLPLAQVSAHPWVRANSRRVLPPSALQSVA
Sequence of MELK (human) (Q14680 whole entry, looked up): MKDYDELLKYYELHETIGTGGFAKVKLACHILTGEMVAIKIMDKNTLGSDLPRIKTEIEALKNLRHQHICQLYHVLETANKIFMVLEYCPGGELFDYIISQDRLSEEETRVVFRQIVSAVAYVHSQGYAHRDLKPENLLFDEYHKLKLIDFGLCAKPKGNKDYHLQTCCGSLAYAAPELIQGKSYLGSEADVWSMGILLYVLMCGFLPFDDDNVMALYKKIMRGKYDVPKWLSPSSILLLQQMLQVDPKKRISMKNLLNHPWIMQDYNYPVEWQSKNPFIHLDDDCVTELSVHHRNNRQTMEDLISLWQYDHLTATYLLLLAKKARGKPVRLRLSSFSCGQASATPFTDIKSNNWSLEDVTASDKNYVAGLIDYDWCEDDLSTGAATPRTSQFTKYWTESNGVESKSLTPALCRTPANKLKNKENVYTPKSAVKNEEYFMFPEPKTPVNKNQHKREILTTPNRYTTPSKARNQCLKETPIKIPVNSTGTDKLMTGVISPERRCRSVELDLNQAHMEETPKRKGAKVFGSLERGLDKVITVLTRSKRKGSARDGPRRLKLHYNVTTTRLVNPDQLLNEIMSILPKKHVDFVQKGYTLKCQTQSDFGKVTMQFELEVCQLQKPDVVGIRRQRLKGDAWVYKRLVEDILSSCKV
Sequence of CaMK1 (human) (Q14012 whole entry, looked up): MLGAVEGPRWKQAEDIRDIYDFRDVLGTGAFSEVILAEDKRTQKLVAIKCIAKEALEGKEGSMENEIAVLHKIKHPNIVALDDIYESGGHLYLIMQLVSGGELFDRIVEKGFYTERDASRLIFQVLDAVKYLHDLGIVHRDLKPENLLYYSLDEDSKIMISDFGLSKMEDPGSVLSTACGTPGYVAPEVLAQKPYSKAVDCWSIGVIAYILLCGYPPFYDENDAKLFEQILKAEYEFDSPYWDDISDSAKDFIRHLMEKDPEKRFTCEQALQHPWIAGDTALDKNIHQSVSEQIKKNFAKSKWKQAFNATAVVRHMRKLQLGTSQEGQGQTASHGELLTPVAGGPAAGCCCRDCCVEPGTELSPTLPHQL
Sequence of MAPK14 (human) (Q16539 whole entry, looked up): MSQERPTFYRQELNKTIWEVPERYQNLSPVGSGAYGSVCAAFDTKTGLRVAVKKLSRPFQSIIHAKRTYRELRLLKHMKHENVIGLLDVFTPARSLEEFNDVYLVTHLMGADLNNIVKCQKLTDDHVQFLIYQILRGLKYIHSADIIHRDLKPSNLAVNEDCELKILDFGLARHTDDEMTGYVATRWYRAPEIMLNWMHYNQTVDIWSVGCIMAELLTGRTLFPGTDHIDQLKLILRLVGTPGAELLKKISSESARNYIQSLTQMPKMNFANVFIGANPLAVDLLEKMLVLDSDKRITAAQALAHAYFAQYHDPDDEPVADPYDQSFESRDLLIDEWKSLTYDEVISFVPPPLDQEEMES
Sequence of CAMKK2 (human) (Q96RR4 whole entry, looked up): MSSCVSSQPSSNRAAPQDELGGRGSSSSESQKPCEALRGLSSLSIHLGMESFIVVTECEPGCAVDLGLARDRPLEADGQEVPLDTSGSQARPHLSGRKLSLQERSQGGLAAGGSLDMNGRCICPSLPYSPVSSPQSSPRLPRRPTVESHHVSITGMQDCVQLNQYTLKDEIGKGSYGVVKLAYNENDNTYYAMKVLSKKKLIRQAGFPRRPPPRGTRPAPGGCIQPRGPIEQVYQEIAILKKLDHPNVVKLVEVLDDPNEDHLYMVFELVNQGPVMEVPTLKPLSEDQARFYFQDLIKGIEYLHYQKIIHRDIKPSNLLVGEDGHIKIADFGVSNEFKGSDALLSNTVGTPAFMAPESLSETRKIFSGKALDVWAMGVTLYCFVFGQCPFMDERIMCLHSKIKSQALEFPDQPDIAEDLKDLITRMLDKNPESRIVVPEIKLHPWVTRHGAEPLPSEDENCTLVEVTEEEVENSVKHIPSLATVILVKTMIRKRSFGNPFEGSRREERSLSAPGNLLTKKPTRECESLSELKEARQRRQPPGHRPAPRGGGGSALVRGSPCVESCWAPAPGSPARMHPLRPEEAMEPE
Sequence of CSNK1D (human) (P48730 whole entry, looked up): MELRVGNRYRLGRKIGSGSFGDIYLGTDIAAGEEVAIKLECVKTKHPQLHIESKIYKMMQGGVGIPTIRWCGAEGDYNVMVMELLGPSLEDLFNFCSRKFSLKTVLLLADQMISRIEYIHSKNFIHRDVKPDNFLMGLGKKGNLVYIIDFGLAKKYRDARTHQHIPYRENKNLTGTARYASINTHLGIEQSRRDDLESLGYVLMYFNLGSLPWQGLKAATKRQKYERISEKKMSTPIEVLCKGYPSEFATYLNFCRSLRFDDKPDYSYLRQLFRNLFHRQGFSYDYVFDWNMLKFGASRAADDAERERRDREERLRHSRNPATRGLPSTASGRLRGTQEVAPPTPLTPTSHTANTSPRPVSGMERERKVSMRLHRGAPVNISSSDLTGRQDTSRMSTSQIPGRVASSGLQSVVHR
Sequence of MAPK12 (human) (P53778 whole entry, looked up): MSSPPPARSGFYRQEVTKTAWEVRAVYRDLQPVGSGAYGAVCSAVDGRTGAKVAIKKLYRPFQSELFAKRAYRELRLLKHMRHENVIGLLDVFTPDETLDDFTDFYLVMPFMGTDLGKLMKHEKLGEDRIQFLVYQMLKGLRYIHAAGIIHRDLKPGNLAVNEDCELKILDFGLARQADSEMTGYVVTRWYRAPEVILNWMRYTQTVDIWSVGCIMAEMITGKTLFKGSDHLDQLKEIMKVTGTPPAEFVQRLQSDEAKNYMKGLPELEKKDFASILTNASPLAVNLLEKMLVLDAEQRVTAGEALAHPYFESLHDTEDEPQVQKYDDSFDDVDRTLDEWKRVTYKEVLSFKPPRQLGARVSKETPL
Sequence of MAPK9 (human) (P45984 whole entry, looked up): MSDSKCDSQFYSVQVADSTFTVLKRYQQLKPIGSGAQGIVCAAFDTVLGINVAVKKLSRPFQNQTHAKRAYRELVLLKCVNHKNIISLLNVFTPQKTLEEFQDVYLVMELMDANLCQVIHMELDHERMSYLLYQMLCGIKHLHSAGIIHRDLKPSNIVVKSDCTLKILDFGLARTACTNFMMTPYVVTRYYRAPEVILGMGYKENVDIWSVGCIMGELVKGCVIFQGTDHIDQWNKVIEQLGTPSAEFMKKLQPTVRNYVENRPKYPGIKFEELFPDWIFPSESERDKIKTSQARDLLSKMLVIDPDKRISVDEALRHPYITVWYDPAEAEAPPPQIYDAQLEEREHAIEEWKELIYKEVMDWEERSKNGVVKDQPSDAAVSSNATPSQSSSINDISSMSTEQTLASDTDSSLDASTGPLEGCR
Sequence of DYRK2 (human) (Q92630 whole entry, looked up): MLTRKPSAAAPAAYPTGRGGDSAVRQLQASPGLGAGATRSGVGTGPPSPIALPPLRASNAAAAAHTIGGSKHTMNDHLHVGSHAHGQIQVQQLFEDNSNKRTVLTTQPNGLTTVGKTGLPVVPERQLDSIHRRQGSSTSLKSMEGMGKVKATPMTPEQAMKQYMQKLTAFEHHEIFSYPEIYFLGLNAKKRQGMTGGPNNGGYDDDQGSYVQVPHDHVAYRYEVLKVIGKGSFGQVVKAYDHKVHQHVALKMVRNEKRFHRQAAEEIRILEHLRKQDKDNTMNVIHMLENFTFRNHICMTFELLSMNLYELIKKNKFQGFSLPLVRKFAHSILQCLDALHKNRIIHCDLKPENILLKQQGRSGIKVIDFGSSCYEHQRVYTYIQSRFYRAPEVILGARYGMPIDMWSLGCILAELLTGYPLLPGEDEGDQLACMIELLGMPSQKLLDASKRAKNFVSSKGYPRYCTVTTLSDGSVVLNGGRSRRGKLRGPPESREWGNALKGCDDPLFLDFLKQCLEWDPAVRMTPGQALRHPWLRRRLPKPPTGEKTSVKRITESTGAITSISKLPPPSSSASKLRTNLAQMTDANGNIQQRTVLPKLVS
Sequence of MAPKAPK2 (human) (P49137 whole entry, looked up): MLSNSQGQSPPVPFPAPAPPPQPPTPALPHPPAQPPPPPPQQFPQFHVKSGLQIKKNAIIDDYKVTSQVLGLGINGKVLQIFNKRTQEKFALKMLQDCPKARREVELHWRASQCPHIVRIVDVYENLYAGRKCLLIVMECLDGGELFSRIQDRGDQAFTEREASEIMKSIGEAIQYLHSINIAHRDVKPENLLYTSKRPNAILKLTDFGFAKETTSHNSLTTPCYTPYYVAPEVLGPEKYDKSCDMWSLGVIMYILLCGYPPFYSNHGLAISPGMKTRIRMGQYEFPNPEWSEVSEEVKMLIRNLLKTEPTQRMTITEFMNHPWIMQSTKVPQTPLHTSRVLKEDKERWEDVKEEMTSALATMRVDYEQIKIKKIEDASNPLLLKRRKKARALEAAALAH
Sequence of MAPK8 (human) (P45983 whole entry, looked up): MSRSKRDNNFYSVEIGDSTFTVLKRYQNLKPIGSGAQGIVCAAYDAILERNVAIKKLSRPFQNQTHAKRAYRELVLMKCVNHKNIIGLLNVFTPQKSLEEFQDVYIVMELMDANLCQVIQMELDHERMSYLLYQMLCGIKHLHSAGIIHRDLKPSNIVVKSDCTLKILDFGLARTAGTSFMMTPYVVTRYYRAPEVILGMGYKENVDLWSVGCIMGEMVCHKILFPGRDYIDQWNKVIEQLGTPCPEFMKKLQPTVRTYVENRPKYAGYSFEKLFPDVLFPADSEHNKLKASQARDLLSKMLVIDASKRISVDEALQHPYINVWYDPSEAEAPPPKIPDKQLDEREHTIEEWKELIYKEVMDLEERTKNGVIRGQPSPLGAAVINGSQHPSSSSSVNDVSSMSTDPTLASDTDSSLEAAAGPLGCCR

With `Cn1c(=O)c2c(ncn2C)n(C)c1=O` the residual activity (MAPK15 (human); compound 0.1 µM) was 88%, the residual activity (MAPK15 (human); compound 1.0 µM) was 95% and the residual activity (MAPK9 (human); compound 0.1 µM) was 94%. It also gave a residual activity (MAPK9 (human); compound 1.0 µM) of 100%, a residual activity (CaMK1 (human); compound 0.1 µM) of 90% and a residual activity (CaMK1 (human); compound 1.0 µM) of 101%. It also gave a residual activity (DYRK1A (human); compound 0.1 µM) of 92%, a residual activity (DYRK1A (human); compound 1.0 µM) of 96% and a residual activity (IKBKE (human); compound 0.1 µM) of 87%. For the same compound, the residual activity (IKBKE (human); compound 1.0 µM) was 90%, the residual activity (IKBKB (human); compound 0.1 µM) was 90% and the residual activity (IKBKB (human); compound 1.0 µM) was 100%. The residual activity (PIM1 (human); compound 0.1 µM) was 90%, the residual activity (PIM1 (human); compound 1.0 µM) was 97% and the residual activity (HIPK2 (human); compound 0.1 µM) was 103%. It also gave a residual activity (HIPK2 (human); compound 1.0 µM) of 112%, a residual activity (BTK (human); compound 0.1 µM) of 79% and a residual activity (BTK (human); compound 1.0 µM) of 78%. For the same compound, the residual activity (DYRK2 (human); compound 0.1 µM) was 81%, the residual activity (DYRK2 (human); compound 1.0 µM) was 87% and the residual activity (PRKACA (human); compound 0.1 µM) was 103%. The residual activity (PRKACA (human); compound 1.0 µM) was 96%, the residual activity (CSNK1D (human); compound 0.1 µM) was 118% and the residual activity (CSNK1D (human); compound 1.0 µM) was 120%. For the same compound, the residual activity (YES1 (human); compound 0.1 µM) was 85%, the residual activity (YES1 (human); compound 1.0 µM) was 85% and the residual activity (MKNK2 (human); compound 0.1 µM) was 87%. It also gave a residual activity (MKNK2 (human); compound 1.0 µM) of 91%, a residual activity (MAPK12 (human); compound 0.1 µM) of 97% and a residual activity (MAPK12 (human); compound 1.0 µM) of 110%. It also gave a residual activity (PAK7 (human); compound 0.1 µM) of 102%, a residual activity (PAK7 (human); compound 1.0 µM) of 114% and a residual activity (MAPK14 (human); compound 0.1 µM) of 88%. For the same compound, the residual activity (MAPK14 (human); compound 1.0 µM) was 89%, the residual activity (MAPKAPK2 (human); compound 0.1 µM) was 102% and the residual activity (MAPKAPK2 (human); compound 1.0 µM) was 89%. The residual activity (MAPK8 (human); compound 0.1 µM) was 92%, the residual activity (MAPK8 (human); compound 1.0 µM) was 78% and the residual activity (MAPKAPK5 (human); compound 0.1 µM) was 96%. It also gave a residual activity (MAPKAPK5 (human); compound 1.0 µM) of 86%, a residual activity (MELK (human); compound 0.1 µM) of 98% and a residual activity (MELK (human); compound 1.0 µM) of 90%. It also gave a residual activity (EPHB3 (human); compound 0.1 µM) of 92%, a residual activity (EPHB3 (human); compound 1.0 µM) of 97% and a residual activity (CSK (human); compound 0.1 µM) of 100%. The residual activity (CSK (human); compound 1.0 µM) was 103%, the residual activity (CAMKK2 (human); compound 0.1 µM) was 104% and the residual activity (CAMKK2 (human); compound 1.0 µM) was 103%. The residual activity (IGF1R (human); compound 0.1 µM) was 86%, the residual activity (IGF1R (human); compound 1.0 µM) was 94% and the residual activity (AURKB (human); compound 0.1 µM) was 91%. It also gave a residual activity (AURKB (human); compound 1.0 µM) of 83%, a residual activity (PAK4 (human); compound 0.1 µM) of 99% and a residual activity (PAK4 (human); compound 1.0 µM) of 100%.

Work on `C[C@H]1CCCC(=O)CCC/C=C/c2cc(O)cc(O)c2C(=O)O1` yielded a residual activity (MAPK15 (human); compound 1.0 µM) of 77%, a residual activity (MAPK15 (human); compound 10.0 µM) of 26% and a residual activity (MAPK9 (human); compound 1.0 µM) of 46%. It also gave a residual activity (MAPK9 (human); compound 10.0 µM) of 65%, a residual activity (CaMK1 (human); compound 1.0 µM) of 101% and a residual activity (CaMK1 (human); compound 10.0 µM) of 75%. The residual activity (DYRK1A (human); compound 10.0 µM) was 32%, the residual activity (IKBKE (human); compound 1.0 µM) was 95% and the residual activity (IKBKE (human); compound 10.0 µM) was 82%. The residual activity (IKBKB (human); compound 1.0 µM) was 101%, the residual activity (IKBKB (human); compound 10.0 µM) was 78% and the residual activity (PIM1 (human); compound 1.0 µM) was 51%. The residual activity (PIM1 (human); compound 10.0 µM) was 11%, the residual activity (HIPK2 (human); compound 1.0 µM) was 100% and the residual activity (HIPK2 (human); compound 10.0 µM) was 63%. It also gave a residual activity (BTK (human); compound 1.0 µM) of 107%, a residual activity (BTK (human); compound 10.0 µM) of 69% and a residual activity (DYRK2 (human); compound 1.0 µM) of 90%. The residual activity (DYRK2 (human); compound 10.0 µM) was 62%, the residual activity (PRKACA (human); compound 1.0 µM) was 97% and the residual activity (PRKACA (human); compound 10.0 µM) was 91%. The residual activity (CSNK1D (human); compound 1.0 µM) was 99%, the residual activity (CSNK1D (human); compound 10.0 µM) was 83% and the residual activity (YES1 (human); compound 1.0 µM) was 79%. It also gave a residual activity (YES1 (human); compound 10.0 µM) of 35%, a residual activity (MKNK2 (human); compound 1.0 µM) of 64% and a residual activity (MKNK2 (human); compound 10.0 µM) of 23%. It also gave a residual activity (MAPK12 (human); compound 1.0 µM) of 97%, a residual activity (MAPK12 (human); compound 10.0 µM) of 93% and a residual activity (PAK7 (human); compound 1.0 µM) of 93%. For the same compound, the residual activity (PAK7 (human); compound 10.0 µM) was 80%, the residual activity (MAPK14 (human); compound 1.0 µM) was 93% and the residual activity (MAPK14 (human); compound 10.0 µM) was 85%. The residual activity (MAPKAPK2 (human); compound 1.0 µM) was 101%, the residual activity (MAPKAPK2 (human); compound 10.0 µM) was 92% and the residual activity (MAPK8 (human); compound 1.0 µM) was 88%. The residual activity (MAPK8 (human); compound 10.0 µM) was 80%, the residual activity (MAPKAPK5 (human); compound 1.0 µM) was 97% and the residual activity (MAPKAPK5 (human); compound 10.0 µM) was 79%. The residual activity (MELK (human); compound 1.0 µM) was 97%, the residual activity (MELK (human); compound 10.0 µM) was 66% and the residual activity (EPHB3 (human); compound 1.0 µM) was 85%. It also gave a residual activity (EPHB3 (human); compound 10.0 µM) of 85%, a residual activity (CSK (human); compound 1.0 µM) of 80% and a residual activity (CSK (human); compound 10.0 µM) of 64%. The residual activity (CAMKK2 (human); compound 1.0 µM) was 90%, the residual activity (CAMKK2 (human); compound 10.0 µM) was 52% and the residual activity (IGF1R (human); compound 1.0 µM) was 93%. For the same compound, the residual activity (IGF1R (human); compound 10.0 µM) was 64%, the residual activity (AURKB (human); compound 1.0 µM) was 37% and the residual activity (AURKB (human); compound 10.0 µM) was 23%. For the same compound, the residual activity (PAK4 (human); compound 1.0 µM) was 95% and the residual activity (PAK4 (human); compound 10.0 µM) was 90%.
